Test results from patent US10828317B2, “Method of treating bacterial infections” (priority 2016, dated 2020).

Experiments:
S. flexneri APV00907 = experiment: MIC and antibiogram; type: cell-based; conditions: combination FdUrd+trimethoprim+uridine, Table 22A
Description: Inhibition of Heliobacter is important in view of increasing resistance and its association to gastric cancer.

P. aeruginosa EN0460 = experiment: MIC; type: cell-based, Pseudomonas aeruginosa; conditions: combination FdUrd+trimethoprim+uridine, Table 8
K. pneumoniae EN0140 = experiment: MIC, AmpC (DHA-1); type: cell-based; conditions: combination FdUrd+trimethoprim+uridine, Table 19
S. marescens EN0454 = experiment: MIC; type: cell-based, Serratia marescens; conditions: combination FdUrd+trimethoprim+uridine, Table 8
K. pneumoniae EN0463 = experiment: MIC; type: cell-based, Klebsiella pneumoniae; conditions: combination FdUrd+trimethoprim+uridine, Table 8
K. pneumoniae EN006 = experiment: MIC, WT (EN006 = EN0006, ATCC 13883); type: cell-based, Klebsiella pneumoniae; conditions: combination FdUrd+trimethoprim+uridine
E. coli EN001 = experiment: MIC, WT (EN001 = EN0001, ATCC 25922); type: cell-based, Escherichia coli; conditions: combination FdUrd+trimethoprim+uridine, Table 19
S. sonnei APV00908 = experiment: MIC and antibiogram; type: cell-based; conditions: combination FdUrd+trimethoprim+uridine, Table 22A
E. coli EN002 = experiment: MIC, DtoIC; type: cell-based, Escherichia coli; conditions: combination FdUrd+trimethoprim+uridine, Table 8
P. aeruginosa EN014 = experiment: MIC, WT; type: cell-based, Pseudomonas aeruginosa; conditions: combination FdUrd+trimethoprim+uridine, Table 8
E. coli EN0137 = experiment: MIC, ESBL (CTX-M-15); type: cell-based; conditions: combination FdUrd+trimethoprim+uridine, Table 19
E. coli EN0235 = experiment: microbe, parasite or virus in culture; type: cell-based; conditions: combination FdUrd+trimethoprim+uridine, Table 19
K. pneumoniae EN0245 = experiment: MIC, colistinR; type: cell-based; conditions: combination FdUrd+trimethoprim+uridine, Table 19
[1] = tested on: A. pittii or A. nosocomialis EN0180; experiment: MIC; type: cell-based, Acinetobacter pittii or nosocomialis; conditions: combination FdUrd+trimethoprim+uridine, Table 8
K. pneumoniae EN0249 = experiment: MIC, colistinR; type: cell-based; conditions: combination FdUrd+trimethoprim+uridine, Table 19
P. mirabilis EN0457 = experiment: MIC; type: cell-based, Proteus mirabilis; conditions: combination FdUrd+trimethoprim+uridine, Table 8
K. pneumoniae EN0244 = experiment: MIC, colistinR; type: cell-based; conditions: combination FdUrd+trimethoprim+uridine, Table 19
E. coli EN0134 = experiment: MIC, AmpC (CMY-4); type: cell-based; conditions: combination FdUrd+trimethoprim+uridine, Table 19
E. coli EN0136 = experiment: MIC, ESBL (CTX-M-2); type: cell-based; conditions: combination FdUrd+trimethoprim+uridine, Table 19
E. coli B EN0458 = experiment: MIC; type: cell-based, Escherichia coli B; conditions: combination FdUrd+trimethoprim+uridine, Table 8
K. pneumoniae EN0145 = experiment: MIC, KPC-2; type: cell-based; conditions: combination FdUrd+trimethoprim+uridine, Table 19
M. luteus EN0455 = experiment: MIC; type: cell-based, Micrococcus luteus; conditions: combination FdUrd+trimethoprim+uridine, Table 8
E. aerogenes EN0461 = experiment: MIC; type: cell-based, Enterobacter aerogenes; conditions: combination FdUrd+trimethoprim+uridine, Table 8
S. aureus EN008 = experiment: MIC, Gram-positive control; type: cell-based, Staphylococcus aureus; conditions: combination FdUrd+trimethoprim+uridine, Table 8
P. mirabilis ST19 EN0445 = experiment: MIC; type: cell-based, Proteus mirabilis; conditions: combination FdUrd+trimethoprim+uridine, Table 8
S. epidermidis EN0456 = experiment: MIC; type: cell-based, Staphylococcus epidermidis; conditions: combination FdUrd+trimethoprim+uridine, Table 8
E. coli EN012 = experiment: MIC, WT; type: cell-based, Escherichia coli; conditions: combination FdUrd+trimethoprim+uridine, Table 8
E. coli EN003 = experiment: microbe, parasite or virus in culture; type: cell-based, Escherichia coli; conditions: combination FdUrd+trimethoprim+uridine, Table 8
Citrobacter sp. EN0465 = experiment: MIC; type: cell-based; conditions: combination FdUrd+trimethoprim+uridine, Table 8
K. pneumoniae EN0144 = experiment: MIC, MBL (VIM-1); type: cell-based; conditions: combination FdUrd+trimethoprim+uridine, Table 19
A. baumannii EN007 = experiment: MIC, WT (EN007 = EN0007); type: cell-based, Acinetobacter baumannii; conditions: combination FdUrd+trimethoprim+uridine
A. baumannii EN016 = experiment: MIC, WT; type: cell-based, Acinetobacter baumannii; conditions: combination FdUrd+trimethoprim+uridine, Table 8
P. aeruginosa EN0459 = experiment: MIC; type: cell-based, Pseudomonas aeruginosa; conditions: combination FdUrd+trimethoprim+uridine, Table 8

Measured: MIC

O=c1[nH]c(=O)n([C@H]2C[C@H](O)[C@@H](CO)O2)cc1F [FdUrd, Fluorodeoxyuridine]
0.032 mg/L: E. coli EN002 | E. coli B EN0458 | E. coli EN012
4 mg/L: [1] | A. baumannii EN016
0.016 mg/L: E. coli EN003
0.06 mg/L: E. coli EN0235
>4 mg/L: S. flexneri APV00907 | P. aeruginosa EN0460 | K. pneumoniae EN0140 | S. marescens EN0454 | S. sonnei APV00908 | P. aeruginosa EN014 | E. coli EN0137 | K. pneumoniae EN0245 | K. pneumoniae EN0249 | K. pneumoniae EN0244 | E. coli EN0134 | K. pneumoniae EN0145 | Citrobacter sp. EN0465 | K. pneumoniae EN0144 | A. baumannii EN007; Table 8 | A. baumannii EN007; Table 19 | P. aeruginosa EN0459
2 mg/L: M. luteus EN0455
0.25 mg/L: K. pneumoniae EN0463 | E. coli EN001
1 mg/L: P. mirabilis EN0457 | E. coli EN0136 | E. aerogenes EN0461
0.5 mg/L: K. pneumoniae EN006; Table 8 | K. pneumoniae EN006; Table 19 | P. mirabilis ST19 EN0445
<0.008 mg/L: S. aureus EN008 | S. epidermidis EN0456
